Data on one molecule can be found in patent US20130205659A1, “METHOD OF CONTROLLING FUSARIUM VIGULIFORME AND SOYBEAN SUDDEN DEATH SYNDROME USING THIABENDAZOLE” (SYNGENTA CROP PROTECTION LLC, priority 2010, published 2013).

Each structure is given as a SMILES string.

The test system of this experiment is Fusarium virguliforme. Nature of the experiment: Growth chamber soybean sudden death syndrome seed treatment test, soil inoculated with F. virguliforme spores, visual disease severity rating. To be noted: for reduction in disease severity: seed treatment, versus control; for Sudden death syndrome Disease Severity (1-9): seed treatment (thiabendazole 5 g ai/100 kg seed; 2.5 g fludioxonil + 3.75 g mefenoxam/100 kg seed), averaged across five growth chamber runs, Njiti et al. scale. The class given is in vivo. The text has this:
Soybean cultivars NK-529-J6 and NK-533-T4 where used for testing. Cultivar NK-529-J6 is labeled as partially resistant to SDS and cultivar NK-533-T4 is labeled susceptible to SDS (Syngenta Seeds, Minneapolis, Minn.). Thiabendazole fungicide seed treatment was applied to both cultivars at a rate of 5 g a.i./100 kg seed. A mefenoxam and fludioxonil combination fungicide seed treatment was also applied at a rate of 3.75 g a.i./100 kg seed and 2.5 g a.i./100kg seed, respectively. Three pathogenic isolates of F. virguliforme (Scherm et al., 1978) were used to inoculate grain sorghum (Sorghum bicolor (L.)) following the methods of Farris Neto et al. (2006). Isolates were grown on one third strength Difco Potato Dextrose Agar (PDA) growth medium. After 18 days, isolate growth on the PDA was divided into thirds and placed into a bag containing 2.27 kg of sorghum seed and allowed to incubate at room temperature for 15 days. Five experiments were conducted in a growth chamber. Each experiment was a randomized complete block design with eight replications. A 1:1 ratio of soil and sand medium was mixed together thoroughly, and steam sterilized at 121° C. for one hour. Upon sterilization of the soil medium 150 g of soil and 2.25 g of yellow cornmeal was weighed and mixed together for each conetainer. A spore suspension was prepared using 17 to 20 day old isolates of F. virguliforme grown on PDA media. Each isolate was aseptically flooded with sterilized, de-ionized water and scraped from the PDA plates causing the release of F. virguliforme spores. Each isolate was then strained through cheesecloth and mixed together to produce the spore suspension. Spore concentrations were determined using a hemacytometer, and concentrations were adjusted to produce 10 000 spores g soil^−1. After the spore concentration was determined the spore suspension was diluted to a volume of 13 ml of spore suspension per conetainer. The soil was then inoculated with the diluted spore suspension (Gongora-Canul and Leandro, 2007). Once the soil was inoculated, conetainers were filled level full with the inoculated soil, and then planted with two seeds of each variety by seed treatment combination (after emergence, thinned to one plant per conetainer) and placed in the growth chamber. Growth chambers were set at 17° C. for one week then changed to 24° C., and maintained for the remainder of the experiment. Growth chambers were set to 17° C. to help slow the germination of the soybean and therefore increase the probability for infection of F. virguliforme to take place (Gongora-Canul and Leandro, 2008). […]
Data collection for the growth chambers consisted of visual disease ratings of SDS symptom severity following the methods of Njiti et al. (1996). […] Disease incidence was recorded as a presence/absence rating.

As for `c1ccc2[nH]c(-c3cscn3)nc2c1` [Thiabendazole, thiabendazole], the “reduction in disease severity” value is, setting by setting: (soybean cultivar NK-533-T4) 35%; (soybean cultivar NK-S29-J6 (printed NK-29-J6)) 25%. Further, the “Sudden death syndrome Disease Severity (1-9)” value (soybean cultivar NK-S29-J6 (partially resistant to SDS)) is given as 0.96 and the “Sudden death syndrome Disease Severity (1-9)” value (soybean cultivar NK-S33-T4 (SDS susceptible), LSD (0.05) 0.39) is 1.08.
